Patent US4232160A, “Isoquinoline propionamides exhibiting analgesic properties” (Miles Laboratories, Inc., priority 1978, dated 1980)
Structures can show the parent of a compound that is named as a salt. Where two headings read alike, the source gives them in different places.

System: male CD-1 mice
Test: acetic acid induced writhing test (analgesic activity, subcutaneous)
Assay type: in vivo
Conditions: Mus musculus, sc, read-out: ED50 (dose required to reduce the number of writhes by 50%)
Method: The analgesic activity of the isoquinoline propionanilides prepared as described in Examples I-XIII was determined by the acetic acid induced writhing test described by Whittle et al., Brit. J. Pharmacol, 22 296 (1964). In this test at least three groups of five male CD-1 mice each were given subcutaneous doses of the test drug dissolved in either distilled water or distilled water acidified with HCl depending on solubility of the compound. In all cases 0.4 ml. of 0.5% v/v acetic acid in distilled water was administered intraperitoneal 15 minutes post drug. The number of writhes in a 20 minute interval beginning 5 minutes after the acetic acid injection were determined and compared with the number of writhes in control groups which had received only acetic acid. In two cases the ITME writhing test protocol was used which is the same as that outlined above except that the number of writhes are determined for 10 minutes after the administration of acetic acid.
Percent inhibition of writhing was calculated as: [formula]
The ED50 does, ie. the dose required to reduce the number of writhes by 50%, was determined graphically from a plot of % inhibition as a probit versus log dose. Confidence limits of 95% were calculated on the basis of those results falling in the range 16-84% inhibition. See Litchfield, J. T. and Wilcoxon, F., J Pharmacol. Exp. Ther., 96 99-113, (1949).

[1] = 0.5% acetic acid i.p. 15 min post drug, writhes counted in 20 min interval beginning 5 min after acetic acid
[2] = 10 min, *According to IMTE writhing test protocol: writhes determined for 10 minutes after acetic acid

CCCCCN1CCc2ccccc2C1CN(C(=O)CC)c1ccccc1.Cl (stereo not shown) [TR-3316, N-[(1,2,3,4-Tetrahydro-2-n-pentyl-1-isoquinolyl)methyl]propionanilide hydrochloride]
ED50 [1]: 1.76 mg/kg

CCC(=O)N(CC1c2ccccc2CCN1CC1CC1)c1ccccc1.Cl (stereo not shown) [TR-3207, N-[(1,2,3,4-Tetrahydro-2-cyclopropylmethyl-1-isoquinolyl)methyl]propionanilide hydrochloride]
ED50 [1]: 7.45 mg/kg

CCC(=O)N(CC1c2ccccc2CCN1C)c1ccccc1.Cl (stereo not shown) [TR-3284, N-[(1,2,3,4-Tetrahydro-2-methyl-1-isoquinolyl)methyl]propionanilide hydrochloride]
ED50 [1]: 7.1 mg/kg

CCC(=O)N(Cc1ccccc1)CC1c2ccccc2CCN1C (stereo not shown) [TR-3389, N-[(1,2,3,4-Tetrahydro-2-methyl-1-isoquinolyl)methyl]-N-benzylpropionamideoxalate]
ED50 [1]: 23 mg/kg

CCC(=O)N(CC1c2ccccc2CCN1C)c1ccc(C)cc1.Cl (stereo not shown) [TR-3355, N-[(1,2,3,4-Tetrahydro-2-methyl-1-isoquinolyl)methyl]-N-(4-methylphenyl)propionamide hydrochloride]
ED50 [1]: 0.53 mg/kg

CCCCCCN1CCc2ccccc2C1CN(C(=O)CC)c1ccccc1.O.O=C(O)C(=O)O (stereo not shown) [TR-3309, N-[(1,2,3,4-Tetrahydro-2-n-hexyl-1-isoquinolyl)methyl]propionanilide oxalate hydrate]
ED50 [1]: 2.08 mg/kg

CCC(=O)N(CC1c2ccccc2CCN1C)c1ccccn1 (stereo not shown) [TR-3461, N-[(2-Methyl-1,2,3,4-tetrahydro-1-isoquinolyl)methyl]-N-(2-pyridyl)priopionamide hydrochloride]
ED50 [1]: 10.7 mg/kg

CCC(=O)N(CC1c2ccccc2CCN1Cc1ccccc1)c1ccccc1.Cl (stereo not shown) [TR-3359, N-[(1,2,3,4-Tetrahydro-2-benzyl-1-isoquinolyl)methyl]propionanilide hydrochloride]
ED50 [1]: 15 mg/kg

CCC(=O)N(CC1c2ccccc2CCN1C)c1ccc(Cl)cc1.Cl (stereo not shown) [TR-3354, N-[(1,2,3,4-Tetrahydro-2-methyl-1-isoquinolyl)methyl]N-(4-chlorophenyl)propionamide hydrochloride]
ED50 [1]: 0.5 mg/kg

CCC(=O)N(CC1c2ccccc2CCN1CCC(C)C)c1ccccc1.Cl (stereo not shown) [TR-3317, N-[(1,2,3,4-Tetrahydro-2-i-pentyl-1-isoquinolyl)methyl]propionanilide hydrochloride]
ED50 [2]: 16.5 mg/kg

CCC(=O)N(Cc1ccccc1)CC1c2ccccc2CCN1Cc1ccccc1 (stereo not shown) [TR-3388, N-[(1,2,3,4-Tetrahydro-2-benzyl-1-isoquinolyl)methyl]-N-benzylpropionamideoxalate]
ED50 [1]: 33 mg/kg

CCC(=O)N(CC1c2cc(OC)c(OC)cc2CCN1C)c1ccccc1 (stereo not shown) [TR-3426, N-[(6,7-Dimethoxy-2-methyl-1,2,3,4-tetrahydro-1-isoquinolyl)methyl]propionanilide]
ED50 [1]: 4.55 mg/kg

CCC(=O)N(CC1c2ccccc2CCN1CCc1ccccc1)c1ccccc1.Cl (stereo not shown) [TR-3280, N-[(1,2,3,4-Tetrahydro-2-phenethyl-1-isoquinolyl)methyl]propionanilide hydrochloride]
ED50 [2]: 10 mg/kg
